Measured values: patent US20240376074A1, “NAMPT INHIBITORS AND USES THEREOF” (Remedy Plan, Inc., priority 2021, published 2024)

molecular target: T1, NAMPT (Homo sapiens, UniProt P43490); assay: NAMPT Activity Assay (Abcam #ab221819); assay type: biochemical; conditions: purified NAMPT, percent inhibition from OD450 nm; compound concentration not given
T1 construct: purchased Abcam ab221819
Method: The NAMPT Activity Assay (Abcam #ab221819) was performed following manufacturers two-step reaction protocol. Briefly, compounds were added to a clear 96-well plate using the HP D300e Digital Dispenser. Purified NAMPT was added to all wells except the No NAMPT controls. Reaction Mix #1 was added to each well and the plate was incubated at 30*C for 1 hr followed by the addition of Reaction Mix #2. Absorbance was measured at OD450 nm using a multimode plate reader. Readings were recorded for 5 minutes and percent inhibition was calculated using: (1-(OD450 nm compound/OD450nm no drug))*100.

T1 sequence (P43490 whole entry): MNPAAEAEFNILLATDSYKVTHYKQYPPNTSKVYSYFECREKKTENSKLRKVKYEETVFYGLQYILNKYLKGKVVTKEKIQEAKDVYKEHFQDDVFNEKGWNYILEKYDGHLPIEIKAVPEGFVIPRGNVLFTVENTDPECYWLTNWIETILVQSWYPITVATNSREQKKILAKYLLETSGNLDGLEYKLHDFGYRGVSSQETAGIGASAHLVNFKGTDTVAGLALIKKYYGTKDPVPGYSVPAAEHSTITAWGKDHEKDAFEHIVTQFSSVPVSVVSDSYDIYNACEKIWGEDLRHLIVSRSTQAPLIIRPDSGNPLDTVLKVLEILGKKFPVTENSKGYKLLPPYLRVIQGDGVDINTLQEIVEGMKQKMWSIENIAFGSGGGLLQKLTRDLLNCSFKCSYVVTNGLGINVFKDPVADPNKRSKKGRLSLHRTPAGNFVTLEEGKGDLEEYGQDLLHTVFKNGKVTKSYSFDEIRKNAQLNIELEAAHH

| NAMPT Inhibition Code* | Compound |
| --- | --- |
| A (*A = <33% inhibition) | CC(=O)N(CC1CC1)c1ccc(-c2ccc(C(=O)NCc3cc[nH]n3)cn2)cc1Cl [I-T2132, 6-[4-[Acetyl(cyclopropylmethyl)amino]-3-chloro-phenyl]-N-(1H-pyrazol-3-ylmethyl)pyridine-3-carboxamide] |
| C (C = ≥66% inhibition) | CC(=O)N(CC1CC1)c1ccc(-c2ccc(C(=O)NCCC3CCCCC3)cn2)cc1Cl [I-T2348, 6-[4-[acetyl(cyclopropylmethyl)amino]-3-chloro-phenyl]-N-(2-cyclohexylethyl)pyridine-3-carboxamide] |
| C (C = ≥66% inhibition) | CC(=O)N(CC1CC1)c1ccc(-c2ccc(C(=O)NCCc3c[nH]cn3)cn2)cc1Cl [I-T2150, 6-[4-[Acetyl(cyclopropylmethyl)amino]-3-chloro-phenyl]-N-[2-(1H-imidazol-4-yl)ethyl]pyridine-3-carboxamide] |
| C (C = ≥66% inhibition) | CC(=O)N(CC1CC1)c1ccc(-c2ccc(C(=O)NCCc3cccnc3)cn2)cc1C#N [I-T2305, 6-[4-[Acetyl(cyclopropylmethyl)amino]-3-cyano-phenyl]-N-[2-(3-pyridyl)ethyl]pyridine-3-carboxamide] |
| C (C = ≥66% inhibition) | CC(=O)N(CC1CC1)c1ccc(-c2ccc(C(=O)NCCCc3cn[nH]c3)cn2)cc1F [I-T2302, 6-[4-[acetyl(cyclopropylmethyl)amino]-3-fluoro-phenyl]-N-[3-(1H-pyrazol-4-yl)propyl]pyridine-3-carboxamide] |
| A (*A = <33% inhibition) | CCOc1ccc(CNC(=O)c2ccc(-c3ccc(N(CC4CC4)C(C)=O)c(Cl)c3)nc2)cn1 [I-T2373, 6-[4-[acetyl(cyclopropylmethyl)amino]-3-chloro-phenyl]-N-[(6-ethoxy-3-pyridyl)methyl]pyridine-3-carboxamide] |
| A (*A = <33% inhibition) | CC(=O)N(CC1CC1)c1ccc(-c2ccc(C(=O)NCc3cnccn3)cn2)cc1Cl [I-T2154, 6-[4-[Acetyl(cyclopropylmethyl)amino]-3-chloro-phenyl]-N-(pyrazin-2-ylmethyl)pyridine-3-carboxamide] |
| C (C = ≥66% inhibition) | CC(=O)N(CC1CC1)c1ccc(-c2ccc(C(=O)NCCCc3cn[nH]c3)cn2)cc1C(F)(F)F [I-T2304, 6-[4-[Acetyl(cyclopropylmethyl)amino]-3-(trifluoromethyl)phenyl]-N-[3-(1H-pyrazol-4-yl)propyl]pyridine-3-carboxamide] |
| C (C = ≥66% inhibition) | CC(=O)N(CC1CC1)c1ccc(-c2ccc(C(=O)NCc3ccc(C#N)nc3)cn2)cc1Cl [I-T2371, 6-[4-[acetyl(cyclopropylmethyl)amino]-3-chloro-phenyl]-N-[(6-cyano-3-pyridyl)methyl]pyridine-3-carboxamide] |
| C (C = ≥66% inhibition) | CC(=O)N(CC1CC1)c1ccc(-c2ccc(C(=O)NCCc3cccnc3)cn2)cc1Cl [I-T2130, 6-[4-[Acetyl(cyclopropylmethyl)amino]-3-chloro-phenyl]-N-[2-(3-pyridyl)ethyl]pyridine-3-carboxamide] |
| C (C = ≥66% inhibition) | CC(=O)N(CC1CC1)c1ccc(-c2ccc(C(=O)NCC3CCCCC3)cn2)cc1Cl [I-T2337, 6-[4-[acetyl(cyclopropylmethyl)amino]-3-chloro-phenyl]-N-(cyclohexylmethyl)pyridine-3-carboxamide] |
| C (C = ≥66% inhibition) | CC(=O)N(CC(F)F)c1ccc(-c2ccc(C(=O)NCCCc3cn[nH]c3)cn2)cc1Cl [I-T2108, 6-[4-[Acetyl(2,2-difluoroethyl)amino]-3-chloro-phenyl]-N-[3-(1H-pyrazol-4-yl)propyl]pyridine-3-carboxamide] |
| B (B = >33 to <66% inhibition) | CC(=O)N(CC1CC1)c1ccc(-c2ccc(NC(=O)CCc3ccc(F)nc3)cn2)cc1Cl [I-T2384, N-[6-[4-[acetyl(cyclopropylmethyl)amino]-3-chloro-phenyl]-3-pyridyl]-3-(6-fluoro-3-pyridyl)propanamide] |
| C (C = ≥66% inhibition) | CC(=O)N(CC1CC1)c1ccc(-c2ccc(NC(=O)/C=C/c3ccccc3)cn2)cc1Cl [I-T2329, (E)-N-[6-[4-[acetyl(cyclopropylmethyl)amino]-3-chloro-phenyl]-3-pyridyl]-3-phenyl-prop-2-enamide] |
| C (C = ≥66% inhibition) | CC(=O)N(CC(F)F)c1ccc(-c2ccc(NC(=O)C3CC3c3cccnc3)cn2)cc1Cl (centres unmarked) [I-T2294, N-[6-[4-[acetyl(2,2-difluoroethyl)amino]-3-chloro-phenyl]-3-pyridyl]-2-(3-pyridyl)cyclopropane carboxamide] |
| A (*A = <33% inhibition) | CC(=O)N(CC(F)F)c1ccc(-c2ccc(C(=O)NCCc3cn[nH]c3)cn2)cc1Cl [I-T2114, 6-[4-[Acetyl(2,2-difluoroethyl)amino]-3-chloro-phenyl]-N-[2-(1H-pyrazol-4-yl)ethyl]pyridine-3-carboxamide] |
| C (C = ≥66% inhibition) | CC(=O)N(CC1CC1)c1ccc(-c2ccc(C(=O)NCCc3cccnc3)cn2)cc1C(F)(F)F [I-T2303, 6-[4-[Acetyl(cyclopropylmethyl)amino]-3-(trifluoromethyl)phenyl]-N-[2-(3-pyridyl)ethyl]pyridine-3-carboxamide] |
| B (B = >33 to <66% inhibition) | CC(=O)N(CC1CC1)c1ccc(-c2ccc(C(=O)NC3Cc4ccccc4C3)cn2)cc1Cl [I-T2152, 6-[4-[Acetyl(cyclopropylmethyl)amino]-3-chloro-phenyl]-N-indan-2-yl-pyridine-3-carboxamide] |
| A (*A = <33% inhibition) | CC(=O)N(CC1CC1)c1ccc(-c2ccc(C(=O)NCCCc3cnn(C)c3)cn2)cc1Cl [I-T2366, 6-[4-[acetyl(cyclopropylmethyl)amino]-3-chloro-phenyl]-N-[3-(1-methylpyrazol-4-yl)propyl]pyridine-3-carboxamide] |
| C (C = ≥66% inhibition) | CC(=O)N(CC1CC1)c1ccc(-c2ccc(C(=O)NCCCn3ccnc3)cn2)cc1Cl [I-T2128, 6-[4-[Acetyl(cyclopropylmethyl)amino]-3-chloro-phenyl]-N-(3-imidazol-1-ylpropyl)pyridine-3-carboxamide] |
